Reference: patent publication USRE38132E1, “Phenylpyrrolidines, phenylimidazolidines,3-phenyl-1,3-oxizolidines and 3-phenyl-1,3-thiazolidines and their use in the treatment of inflammatory disease” (Boehringer Ingelheim Pharmaceuticals, Inc., priority 1997, dated 2003)

Assays:
[1] = biological target: T1, interaction of ICAM-1 with the Leukointegrin CD18/CD11a (LFA-1) (Homo sapiens, UniProt P05107+P20701); experiment: Assay to determine inhibition of LFA-1 binding to ICAM-1 (immunopurified LFA-1 on plate-bound sICAM-1, ELISA readout)
T1 construct: endogenous in cells; sICAM-1: made in house, secreted from transfected CHO DUX cells

[2] = system: cell bound form of LFA-1 (CD18, CD11a) with ICAM-1, SKW3 cells; experiment: Inhibition of SKW3 cell binding to ICAM-1 (PMA-stimulated); assay type: cell-based, human; details: Homo sapiens, SKW3; read-out: Assay to Detect SKW3 Cells Binding to ICAM IC50
Summary of the method: (§1)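 Plates coated with sICAM-1 (40 μg/mL) or fibronectin (100 μg/mL) for 1 h; SKW3 cells in RPMI/15% FBS activated with PMA (50 μg/mL final) added with compound, 2 h at 37° C. Unbound cells washed off; value is concentration (μM) giving 50% binding inhibition.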

[3] = system: SKW3 cells
[4] = system: cell bound fibronectin receptor (VLA4) with fibronectin, SKW3 cells; experiment: Inhibition of SKW3 cell binding to fibronectin (selectivity counter-assay); assay type: cell-based, human; details: exact quantification not always possible due to intrinsic toxicity; for Assay to Detect SKW3 Cells Binding to FIBRONECTIN IC50: No inh = no inhibition observed up to highest dose; for IC50: Homo sapiens, SKW3, No inh = no inhibition observed up to highest dose, read-out: Assay to Detect SKW3 Cells Binding to FIBRONECTIN IC50
Summary of the method: as §1

[5] = system: LFA-1 dependent aggregation of JY cells; experiment: JY cell homotypic aggregation assay (PMA-stimulated); assay type: cell-based, human; details: Homo sapiens
Summary of the method: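 JY cells (2·10^5 cells/well) in RPMI 1640 with 10% FCS incubated with test compound and […]; cells settle spontaneously and aggregation is scored at various time points. Values are concentrations (μM) giving 50% inhibition of binding.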

T1 sequence (P20701 26-1170): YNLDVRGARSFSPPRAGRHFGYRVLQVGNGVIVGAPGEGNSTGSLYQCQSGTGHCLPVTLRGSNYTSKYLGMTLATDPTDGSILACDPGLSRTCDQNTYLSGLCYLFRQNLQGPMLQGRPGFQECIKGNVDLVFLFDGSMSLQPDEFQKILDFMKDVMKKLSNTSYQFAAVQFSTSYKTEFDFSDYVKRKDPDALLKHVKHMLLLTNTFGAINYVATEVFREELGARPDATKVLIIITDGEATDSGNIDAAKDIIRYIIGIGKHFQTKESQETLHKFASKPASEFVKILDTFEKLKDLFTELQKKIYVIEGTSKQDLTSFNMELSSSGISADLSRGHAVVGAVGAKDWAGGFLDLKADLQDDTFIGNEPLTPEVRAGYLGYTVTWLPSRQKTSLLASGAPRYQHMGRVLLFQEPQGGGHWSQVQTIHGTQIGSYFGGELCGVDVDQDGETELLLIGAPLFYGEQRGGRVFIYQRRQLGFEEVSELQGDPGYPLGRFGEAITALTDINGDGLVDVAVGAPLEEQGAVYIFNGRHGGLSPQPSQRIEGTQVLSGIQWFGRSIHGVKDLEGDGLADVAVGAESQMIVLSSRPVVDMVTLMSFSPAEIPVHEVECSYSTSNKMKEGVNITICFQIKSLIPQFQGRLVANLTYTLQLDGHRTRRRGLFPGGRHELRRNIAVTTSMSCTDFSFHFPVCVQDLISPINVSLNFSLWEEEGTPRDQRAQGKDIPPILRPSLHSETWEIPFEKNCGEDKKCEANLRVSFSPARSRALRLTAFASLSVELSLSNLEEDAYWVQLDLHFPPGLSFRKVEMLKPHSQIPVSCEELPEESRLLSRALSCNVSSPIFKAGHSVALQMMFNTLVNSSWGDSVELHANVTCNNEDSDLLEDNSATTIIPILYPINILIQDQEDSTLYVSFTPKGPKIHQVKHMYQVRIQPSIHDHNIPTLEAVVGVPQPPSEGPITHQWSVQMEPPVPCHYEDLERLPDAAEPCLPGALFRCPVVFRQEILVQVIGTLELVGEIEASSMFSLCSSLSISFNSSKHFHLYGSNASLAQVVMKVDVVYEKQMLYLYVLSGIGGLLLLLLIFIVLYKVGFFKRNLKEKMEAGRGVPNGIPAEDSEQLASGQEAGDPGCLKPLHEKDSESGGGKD
T1 sequence (P05107 23-769): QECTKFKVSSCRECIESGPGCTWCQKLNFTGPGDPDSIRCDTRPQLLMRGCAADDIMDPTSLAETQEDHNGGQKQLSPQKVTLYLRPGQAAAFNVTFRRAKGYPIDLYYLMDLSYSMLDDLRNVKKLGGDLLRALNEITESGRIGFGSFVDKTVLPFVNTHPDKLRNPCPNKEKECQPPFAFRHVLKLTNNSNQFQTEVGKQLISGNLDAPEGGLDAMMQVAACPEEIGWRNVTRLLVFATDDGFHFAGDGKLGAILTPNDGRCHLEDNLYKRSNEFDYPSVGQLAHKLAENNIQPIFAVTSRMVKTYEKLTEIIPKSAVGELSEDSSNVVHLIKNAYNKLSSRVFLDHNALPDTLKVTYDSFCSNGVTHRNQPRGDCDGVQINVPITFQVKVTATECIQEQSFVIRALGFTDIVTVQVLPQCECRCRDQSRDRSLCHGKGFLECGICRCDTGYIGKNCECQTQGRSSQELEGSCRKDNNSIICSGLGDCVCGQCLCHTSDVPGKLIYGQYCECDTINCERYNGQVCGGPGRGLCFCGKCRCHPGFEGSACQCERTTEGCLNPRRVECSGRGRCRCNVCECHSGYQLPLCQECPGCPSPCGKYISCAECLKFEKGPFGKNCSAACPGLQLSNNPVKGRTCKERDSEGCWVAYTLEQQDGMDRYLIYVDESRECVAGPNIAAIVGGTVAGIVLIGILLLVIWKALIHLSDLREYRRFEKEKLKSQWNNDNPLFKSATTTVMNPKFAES

Compound	Kd [1] [nM]	IC50 [2] [nM]	Cellular Toxicity Assay MTT LD50 [3] [µM]	Assay to Detect SKW3 Cells Binding to FIBRONECTIN IC50 [4]	IC50 [5] [nM]	IC50 [4] [nM]
C[C@@]1(Cc2ccc(Br)cc2)C(=O)N(c2cc(Cl)cc(Cl)c2)C(=O)N1CCCP(=O)(O)O [Example 223]	150	2000 to 4000	200 to 400	No inh^c	200	–
C[C@@]1(Cc2ccc(Br)cc2)C(=O)N(c2cc(Cl)cc(Cl)c2)C(=O)N1C1CCNCC1 [Example 224]	280	5000 to 10000	<25	No inh^c	3100	–
C[C@@]1(Cc2ccc(Br)cc2)C(=O)N(c2cc(Cl)cc(Cl)c2)C(=O)N1Cc1ccc(C(=O)O)cc1 [Example 228]	410	12000 to 25000	50 to 100	No inh^c	1600	–
C[C@@]1(Cc2ccc(Br)cc2)C(=O)N(c2cc(Cl)cc(Cl)c2)C(=O)N1C(=O)[C@H]1CCCN1 [Example 235]	330	9000	100 to 200	No inh^c	1600	–
C[C@@]1(Cc2ccc(Br)cc2)C(=O)N(c2cc(Cl)cc(Cl)c2)C(=O)N1C1CCN(CC(=O)O)CC1 [Example 237]	130	1000 to 2000	50 to 100	No inh^c	100	–
C[C@@]1(Cc2ccc(Br)cc2)C(=O)N(c2cc(Cl)cc(Cl)c2)C(=O)N1CCCN [Example 240]	110	1000 to 3000	11 to 23	–	6300	13400
C[C@@]1(Cc2ccc(Br)cc2)C(=O)N(c2cc(Cl)cc(Cl)c2)C(=O)N1Cc1ccc(C(=N)N)cc1 [Example 242]	400	10000 to 25000	16 to 32	No inh^c	2800	–
C[C@@]1(Cc2ccc(Br)cc2)C(=O)N(c2cc(Cl)cc(Cl)c2)C(=O)N1Cc1cccc(C(=N)N)c1 [Example 243]	110	5000 to 6000	10 to 20	No inh^c	3100	–
CN1C(=O)N(c2cc(Cl)cc(Cl)c2)C(=O)C1(CCO)Cc1ccc(Br)cc1 (centres unmarked) [Example 244]	3980	4000 to 8000	200 to 400	No inh^c	2200	–
C[C@@]1(Cc2ccc(Br)cc2)C(=O)N(c2cc(Cl)cc(Cl)c2)C(=O)N1Cc1cccc(O)c1 [Example 245]	210	1000 to 3000	25 to 50	No inh^c	700	–
C[C@@]1(Cc2ccc(Br)cc2)C(=O)N(c2cc(Cl)cc(Cl)c2)C(=O)N1Cc1ccccc1O [Example 247]	230	1500 to 3000	40 to 80	No inh^c	2300	–
CN1C(=O)N(c2cc(Cl)cc(Cl)c2)C(=O)C1(C)Cc1ccc(Br)cc1O (centres unmarked) [Example 248]	370	9000 to 18000	50 to 100	No inh^c	700	–
C[C@@]1(Cc2ccc(Br)cc2)C(=O)N(c2cc(Cl)cc(Cl)c2)C(=O)N1CCCS(=O)(=O)O [Example 249]	160	< 1000	200 to 400	No inh^c	400	–
C[C@@]1(Cc2ccc(Br)cc2)C(=O)N(c2cc(Cl)cc(Cl)c2)C(=O)N1CCCCS(=O)(=O)O [Example 250]	40	< 1000	100 to 200	No inh^c	100	–
C[C@@]1(Cc2ccc(Br)cc2)C(=O)N(c2cc(Cl)cc(Cl)c2)C(=O)N1CCCCn1ccnc1 [Example 252]	110	400 to 800	17 to 20	No inh^c	300	–
C[C@@]1(Cc2ccc(Br)cc2)C(=O)N(c2cc(Cl)cc(Cl)c2)C(=O)N1CCCCC#N [Example 256]	120	800 to 2000	150 to 300	No inh^c	400	–
C[C@@]1(Cc2ccc(Br)cc2)C(=O)N(c2cc(Cl)cc(Cl)c2)C(=O)N1CCCCCC#N [Example 257]	80	1600	300	No inh^c	600	–
CC(=O)OCCN1C(=O)N(c2cc(Cl)cc(Cl)c2)C(=O)[C@@]1(C)Cc1ccc(Br)cc1 [Example 260]	70	19000 to 38000	200 to 400	No inh^c	1100	–
C[C@@]1(Cc2ccc(Br)cc2)C(=O)N(c2cc(Cl)cc(Cl)c2)C(=O)N1CCCNC(=N)N [Example 262]	80	1000 to 2000	25 to 75	No inh^c	400	–
C[C@@]1(Cc2ccc(Br)cc2)C(=O)N(c2cc(Cl)cc(Cl)c2)C(=O)N1CCCCNC(=N)N [Example 263]	90	800 to 1600	20 to 40	No inh^c	800	–
C[C@@]1(Cc2ccc(Br)cc2)C(=O)N(c2cc(Cl)cc(Cl)c2)C(=O)N1CCCCCNC(=N)N [Example 264]	120	2000 to 5000	12 to 24	No inh^c	400	–
C[C@]1(Cc2ccccc2)NC(=O)N(c2cc(Cl)cc(Cl)c2)C1=O [Example 265]	280	19000 to 38000	130 to 250	–	3000	> 75000
CN1C(=O)N(c2cc(Cl)cc(Cl)c2)C(=O)[C@@]1(C)Cc1ccccc1 [Example 266]	140	25000 to 50000	>500	–	3000	> 50000
CC(C)N1C(=O)N(c2cc(Cl)cc(Cl)c2)C(=O)[C@@]1(C)Cc1ccc(Br)cc1 [Example 273]	190	38000	150 to 300	–	2000	> 75000
CC(C)N1C(=O)N(c2cc(Cl)cc(Cl)c2)C(=O)[C@]1(C)Cc1ccc(Br)cc1 [Example 274]	140	25000 to 50000	200 to 300	–	3000	> 100000
